Holding throughout (type): in vivo
For assay [1], the system named is Puccinia triticina; Synonym: Puccinia recondita f sp. tritici. The assay can be described thus: Wheat Brown Rust (PUCCRT) fungicidal activity on wheat seedlings. Particulars: Low Volume, 121.5 g/H. The method, boiled down:
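Yuma wheat seedlings (first leaf emerged) were sprayed to run-off with compound in acetone/water 1:9 (110 ppm Triton X-100), and P. triticina spores were inoculated before or after treatment. Plants were kept overnight in a 22 °C dark dew room at 100% RH, then moved to a 24 °C greenhouse; % control was based on first-leaf severity (0–100%) versus untreated plants.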

Assay [2] has as its system Glomerella lagenarium; Anamorph: Colletotrichum lagenarium. As to the kind of experiment: Cucumber Anthracnose (COLLLA) fungicidal activity on cucumber seedlings. The conditions noted are these: Colletotrichum orbiculare, 24 h, 1 Day Protectant, read-out: COLLLA 1 DP disease control. The method, then: Technical grades of materials were dissolved in acetone, which were then mixed with nine volumes of water (H2O) containing 110 ppm Triton X-100. The fungicide solutions were applied onto wheat seedlings using an automated booth sprayer to run-off. All sprayed plants were allowed to air dry prior to further handling. All fungicides were evaluated using the aforementioned method for their activity vs. all target diseases, unless stated otherwise. Wheat leaf blotch and brown rust activity were also evaluated using track spray applications, in which case the fungicides were formulated as EC formulations, containing 0.1% Trycol 5941 in the spray solutions. Wheat plants (variety Yuma) were grown from seed in a greenhouse in 50% mineral soil/50% soil-less Metro mix until the first leaf was fully emerged, with 7-10 seedlings per pot. These plants were inoculated with an aqueous spore suspension of Septoria tritici either prior to or after fungicide treatments. After inoculation the plants were kept in 100% relative humidity (one day in a dark dew chamber followed by two to three days in a lighted dew chamber at 20° C.) to permit spores to germinate and infect the leaf. The plants were then transferred to a greenhouse set at 20° C. for disease to develop. When disease symptoms were fully expressed on the 1st leaves of untreated plants, infection levels were assessed on a scale of 0 to 100 percent disease severity. Percent disease control was calculated using the ratio of disease severity on treated plants relative to untreated plants. Example J: Evaluation of Fungicidal Activity: Cucumber Anthracnose (Glomerella lagenarium; Anamorph: Colletotrichum lagenarium; Bayer code COLLLA) Cucumber seedlings (variety Bush Pickle) were propagated in soil-less Metro mix, with each pot having one plant, and used in the test when 12 to 14 days old. Test plants were inoculated with an aqueous spore suspension of Colletotrichum lagenarium 24 hr after fungicide treatments. After inoculation the plants were kept in a dew room at 22° C. with 100% relative humidity for 48 hr to permit spores to germinate and infect the leaf. The plants were then transferred to a growth room set at 22° C. for disease to develop. Fungicide formulation, application and disease assessment on the sprayed leaves followed the procedures as described in the Example A.

Assay [3] relates to Mycosphaerella graminicola; Anamorph: Septoria tritici. The assay can be described thus: Leaf Blotch of Wheat (SEPTTR) fungicidal activity on wheat seedlings. The conditions noted are these: Zymoseptoria tritici, Low Volume, 121.5 g/H. The method in brief:
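Compounds in acetone were diluted with nine volumes of water containing 110 ppm Triton X-100, or as EC formulations with 0.1% Trycol 5941 for track spray. They were sprayed on first-leaf Yuma wheat seedlings inoculated with S. tritici before or after treatment. Plants spent 1 day dark and 2–3 days lit at 100% RH, 20 °C. Severity (0–100%) was scored once untreated plants were fully diseased; control was computed relative to untreated plants.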

The mark [4] stands for this setting: 24 h, 1 Day Protectant, read-out: PUCCRT 1DP disease control.
The mark [5] stands for this setting: 72 h, 3 Day Curative, read-out: PUCCRT 3DC disease control.
The mark [6] stands for this setting: 24 h, 1 Day Protectant, read-out: SEPTTR 1DP disease control.
[7] abbreviates: 72 h, 3 Day Curative, read-out: SEPTTR 3DC disease control.

Where two headings read alike, the source gives them in different places. A value given as a limit tells only on which side of the number the result lay.

Take `COc1ccnc(C(=O)N[C@@H](C)C(=O)O[C@@H](C)C(c2ccc(Cl)cc2)c2ccc(Cl)cc2)c1OC(C)=O` [Cmpd 174]: the pest or weed control at 121.5 g/ha in assay [1] (setting [4]) is over 80%; in assay [1] (setting [5]), under 80%; in assay [3] (setting [6]) it was over 80%; in assay [3] (setting [7]) it was over 80%. Also, the pest or weed control at 100 ppm in assay [2] is over 80%.
In the case of `COc1ccnc(C(=O)N[C@@H](C)C(=O)O[C@@H](C)C(c2ccccc2)c2ccccc2)c1OC(C)=O` [Cmpd 139, (S)-(S)-1,1-diphenylpropan-2-yl 2-(3-acetoxy-4-methoxypicolinamido)propanoate], the pest or weed control at 121.5 g/ha in assay [1] (setting [4]), in assay [1] (setting [5]), in assay [3] (setting [6]) and in assay [3] (setting [7]) was over 80% throughout. For the same compound, the pest or weed control at 100 ppm in assay [2] is over 80%.
Regarding `COc1ccnc(C(=O)N[C@@H](C)C(=O)O[C@@H](C)C(c2ccccc2)c2ccccc2)c1OCOC(C)=O` [Cmpd 141, (S)-(S)-1,1-diphenylpropan-2-yl 2-(3-(acetoxymethoxy)-4-methoxypicolinamido)propanoate], the pest or weed control at 121.5 g/ha in assay [1] (setting [4]), in assay [1] (setting [5]), in assay [3] (setting [6]) and in assay [3] (setting [7]) was over 80% each time. For the same compound, the pest or weed control at 100 ppm in assay [2] is over 80%.
With `COc1ccnc(C(=O)N[C@@H](C)C(=O)O[C@@H](C)C(c2ccc(F)cc2F)c2ccc(F)cc2F)c1OC(C)=O` [Cmpd 150], the pest or weed control at 121.5 g/ha in assay [1] (setting [4]), in assay [1] (setting [5]), in assay [3] (setting [6]) and in assay [3] (setting [7]) was over 80% each time. Further, the pest or weed control at 100 ppm in assay [2] is over 80%.
With `COc1ccnc(C(=O)N[C@@H](C)C(=O)O[C@@H](C)C(c2ccccc2)c2ccccc2)c1OC(=O)C(C)C` [Cmpd 140], the pest or weed control at 121.5 g/ha in assay [1] (setting [4]) was over 80%; in assay [1] (setting [5]), under 80%; in assay [3] (setting [6]), over 80%; in assay [3] (setting [7]) it was over 80%. Besides, the pest or weed control at 100 ppm in assay [2] is over 80%.
As for `COc1ccnc(C(=O)N[C@@H](C)C(=O)O[C@@H](C)C(c2ccc(F)cc2F)c2ccc(F)cc2F)c1OCOC(C)=O` [Cmpd 148], the pest or weed control at 121.5 g/ha in assay [1] (setting [4]), in assay [1] (setting [5]), in assay [3] (setting [6]) and in assay [3] (setting [7]) was over 80% in each case. Also, the pest or weed control at 100 ppm in assay [2] is over 80%.
`COc1ccnc(C(=O)N[C@@H](C)C(=O)O[C@@H](C)C(c2ccc(F)cc2)c2ccc(F)cc2)c1OC(C)=O` [Cmpd 145]: the pest or weed control at 121.5 g/ha in assay [1] (setting [4]), in assay [1] (setting [5]), in assay [3] (setting [6]) and in assay [3] (setting [7]) was over 80% in each case. In assay [2], the pest or weed control at 100 ppm is over 80%.
As to `COc1ccnc(C(=O)N[C@@H](C)C(=O)O[C@@H](C)C(c2ccc(Cl)cc2)c2ccc(Cl)cc2)c1OCOC(C)=O` [Cmpd 176], the pest or weed control at 121.5 g/ha in assay [1] (setting [4]), in assay [1] (setting [5]), in assay [3] (setting [6]) and in assay [3] (setting [7]) was over 80% throughout. In assay [2], the pest or weed control at 100 ppm was over 80%.
`COc1ccnc(C(=O)N[C@@H](C)C(=O)O[C@@H](C)C(c2ccc(F)cc2)c2ccc(F)cc2)c1OCOC(C)=O` [Cmpd 146]: the pest or weed control at 121.5 g/ha in assay [1] (setting [4]), in assay [1] (setting [5]), in assay [3] (setting [6]) and in assay [3] (setting [7]) was over 80% in each case. Moreover, the pest or weed control at 100 ppm in assay [2] was over 80%.
For `COc1ccnc(C(=O)N[C@@H](C)C(=O)O[C@@H](C)C(c2ccccc2)c2ccccc2)c1OCOC(=O)C(C)C` [Cmpd 142, (S)-(S)-1,1-diphenylpropan-2-yl 2-(3-((isobutyryloxy)methoxy)-4-methoxypicolinamido)propanoate], the pest or weed control at 121.5 g/ha in assay [1] (setting [4]), in assay [1] (setting [5]), in assay [3] (setting [6]) and in assay [3] (setting [7]) was over 80% throughout. Also, the pest or weed control at 100 ppm in assay [2] is over 80%.

The values are drawn from US20240423207A1, “PICOLINAMIDE COMPOUNDS WITH FUNGICIDAL ACTIVITY” (CORTEVA AGRISCIENCE LLC, priority 2014, published 2024).
